Assay results from PMC7400437, “Synthesis and Evaluation of the Antibacterial Activities of 13-Substituted Berberine Derivatives” (Antibiotics, 2020).
Like-named read-outs stand apart in the source and are kept apart here.

Tests used:
S. aureus = experiment: MIC, antimicrobial activity assay; format: cell-based, Staphylococcus aureus (ATCC 6538P); details: Staphylococcus aureus
B. subtilis = experiment: MIC, antimicrobial activity assay; format: cell-based, Bacillus subtilis (ATCC 6633); details: Bacillus subtilis
E. coli = experiment: MIC, antimicrobial activity assay; format: cell-based, Escherichia coli (ATCC 8739); details: Escherichia coli
P. aeruginosa = experiment: MIC, antimicrobial activity assay; format: cell-based, Pseudomonas aeruginosa (ATCC 9027); details: Pseudomonas aeruginosa
M. smegmatis = experiment: microbe, parasite or virus in culture; format: cell-based, Mycobacterium smegmatis (mc2155, ATCC 700084); details: Mycolicibacterium smegmatis, 72 h, read-out: Minimal Inhibitory Concentration (MIC) M. smegmatis
C. albicans = experiment: MIC, antifungal activity assay; format: cell-based, Candida albicans (DSM 10697); details: Candida albicans; Table 1 first screening; 35 °C, 24 h; read-out: Minimal Inhibitory Concentration (MIC) C. albicans
A. gandavensis = experiment: MIC, antimicrobial activity assay; format: cell-based, Arthrobacter gandavensis (DSM 2447); details: Arthrobacter gandavensis; Table 4, Gram-positive
B. cereus = experiment: MIC, antimicrobial activity assay; format: cell-based; details: Bacillus cereus; Table 4, Gram-positive
[1] = tested on: B. subtilis (Nisin-resistant); experiment: MIC, antimicrobial activity assay; format: cell-based, nisin-resistant B. subtilis (DSMZ 347); details: Bacillus subtilis, read-out: MIC B. subtilis (Nisin-resistant)
C. difficile = experiment: MIC, antimicrobial activity assay; format: cell-based, Clostridium difficile (DSM 1296); details: Clostridioides difficile; Table 4, Gram-positive; anaerobic
C. perfringens = experiment: microbe, parasite or virus in culture; format: cell-based, Clostridium perfringens (ATCC 13124); details: Clostridium perfringens, read-out: MIC C. perfringens
[2] = tested on: E. faecalis (Vancomycin-resistant); experiment: MIC, antimicrobial activity assay; format: cell-based, vancomycin-resistant Enterococcus faecalis (DSMZ 13591); details: Enterococcus faecalis, read-out: MIC E. faecalis (Vancomycin-resistant)
L. lactis = experiment: MIC, antimicrobial activity assay; format: cell-based, Lactococcus lactis (DSM 20481); details: Lactococcus lactis; Table 4, Gram-positive
[3] = tested on: S.aureus (Methicillin-resistant); experiment: MIC, antimicrobial activity assay; format: cell-based; details: Staphylococcus aureus, read-out: MIC S.aureus (Methicillin-resistant)
S. pyogenes = experiment: MIC, antimicrobial activity assay; format: cell-based, Streptococcus pyogenes (DSM 20565); details: Streptococcus pyogenes; Table 4, Gram-positive; anaerobic
A. baumannii = experiment: MIC, antimicrobial activity assay; format: cell-based, Acinetobacter baumannii (CIP 110431); details: Acinetobacter baumannii; Table 4, Gram-negative
C. farmer = experiment: MIC, antimicrobial activity assay; format: cell-based, Citrobacter farmeri (ATCC 51633); details: Citrobacter farmeri; Table 4, Gram-negative
C. rodentium = experiment: MIC, antimicrobial activity assay; format: cell-based, Citrobacter rodentium (ATCC 51116); details: Citrobacter rodentium; Table 4, Gram-negative
H. pylori = experiment: MIC, antimicrobial activity assay; format: cell-based, Helicobacter pylori (ATCC 43504); details: Helicobacter pylori; Table 4, Gram-negative; microaerobic
K. pneumonia = experiment: MIC, antimicrobial activity assay; format: cell-based, Klebsiella pneumoniae (DSMZ 26371); details: Klebsiella pneumoniae; Table 4, Gram-negative
[4] = tested on: P. aeruginosa (Quinolone-resistant); experiment: MIC, antimicrobial activity assay; format: cell-based; details: Pseudomonas aeruginosa, read-out: MIC P. aeruginosa (Quinolone-resistant)
S. enterica = experiment: MIC, antimicrobial activity assay; format: cell-based, Salmonella enterica (CIP 80.39); details: Salmonella enterica; Table 4, Gram-negative
S. flexneri = experiment: MIC, antimicrobial activity assay; format: cell-based, Shigella flexneri (ATCC 12022); details: Shigella flexneri; Table 4, Gram-negative
V. diabolicus = experiment: MIC, antimicrobial activity assay; format: cell-based; details: Vibrio diabolicus; Table 4, Gram-negative
V. alginolyticus = experiment: MIC, antimicrobial activity assay; format: cell-based, Vibrio alginolyticus (DSM 2171); details: Vibrio alginolyticus; Table 4, Gram-negative
[5] = tested on: BEAS (human airway epithelial cells); experiment: Cytotoxic assay on human cells (resazurin); format: cell-based; details: Epithelial cell, 48 h, means +/−SD, read-out: Inhibitory Concentration 50 (IC50) on cell viability, BEAS
Method: (§1) The toxicity of berberine and berberine’s derivatives on human cells was evaluated using resazurin assay as previously described. Human cells used were BEAS (ATCC CRL-9609), Caco2 (ATCC HTB-37) and HepG2 (ATCC HB-8065) corresponding respectively to human airway epithelial cells, intestinal epithelial cells and liver cells. Cells were cultured in Dulbecco’s modified essential medium (DMEM) supplemented with 10% fetal bovine serum (FBS), 1% L-glutamine and 1% antibiotics (Thermo Fisher Scientific, Illkirch-Graffenstaden, France). Cells were routinely grown on 25 cm^2 flasks and maintained in a 5% CO2 incubator at 37 °C. For toxicity assay, cells were detached using trypsin–EDTA solution (Thermo Fisher Scientific), counted using Mallasez counting chamber and seeded into 96-well cell culture plates (Greiner bio-One, Dominique Dutscher, Brumath, France) at approximately 10,000 cells per well. The cells were left to grow for 48–72 h at 37 °C in a 5% CO2 incubator until they reached confluence. Media from wells was then aspirated and cells were treated with 100 µL of culture media containing increasing concentrations of berberine or berberine’s derivatives obtained by serial dilution (from 0 to 50 µM, 1:2 dilution), DMSO (0.5% DMSO final concentration) was used as negative control. After 48 h incubation at 37 °C in a 5% CO2 incubator, cell viability was evaluated using resazurin based in vitro toxicity assay kit (Sigma-Aldrich) following manufacturer’s instructions. Briefly, cell wells were emptied, and cells were treated with 100 µL of resazurin diluted 1:10 in sterile PBS containing calcium and magnesium (PBS^++, pH 7.4). After 4 h incubation at 37 °C, fluorescence intensity (excitation wavelength of 530 nm/emission wavelength of 590 nm) was measured using Synergy Mx microplate reader (Biotek). The fluorescence values were normalized by the controls (DMSO treated cells) and expressed as percent viability. The IC50 values of berberine and berberine’s derivatives on cell viability (i.e., the concentration of derivative causing a reduction of 50% of the cell viability) were calculated using GraphPad® Prism 7 software (San Diego, CA, USA). t-Test and two ways ANOVA analyses were used to address the significant differences between mean values with significance set at p < 0.05.

[6] = tested on: Caco2 (human intestinal epithelial cells); experiment: Cytotoxic assay on human cells (resazurin); format: cell-based; details: for IC50: Homo sapiens, Caco-2, 48 h, read-out: Inhibitory Concentration 50 (IC50) on cell viability, Caco2; for therapeutic index Caco2: IC50 on Caco2 divided by MIC on S. aureus
Method: as §1

[7] = tested on: HepG2 (human liver cells); experiment: Cytotoxic assay on human cells (resazurin); format: cell-based; details: HepG2, 48 h, read-out: Inhibitory Concentration 50 (IC50) on cell viability, HEPG2
Method: as §1

[8] = Table 1 first screening, read-out: Minimal Inhibitory Concentration (MIC) S. aureus
[9] = Table 4, Gram-positive, read-out: MIC S. aureus
[10] = Table 1 first screening, read-out: Minimal Inhibitory Concentration (MIC) B. subtilis
[11] = Table 4, Gram-positive, read-out: MIC B. subtilis
[12] = Table 1 first screening, read-out: Minimal Inhibitory Concentration (MIC) E. coli
[13] = Table 4, Gram-negative, read-out: MIC E. coli
[14] = Table 1 first screening, read-out: Minimal Inhibitory Concentration (MIC) P. aeruginosa
[15] = Table 4, Gram-negative, read-out: MIC P. aeruginosa

SMILES	MIC (S. aureus; [8])	MIC (S. aureus; [9])	MIC (B. subtilis; [10])	MIC (B. subtilis; [11])	MIC (E. coli; [12])	MIC (E. coli; [13])	MIC (P. aeruginosa; [14])	MIC (P. aeruginosa; [15])	MIC (M. smegmatis)	MIC (C. albicans)	MIC (A. gandavensis)	MIC (B. cereus)	MIC [1]	MIC (C. difficile)	MIC (C. perfringens)	MIC [2]	MIC (L. lactis)	MIC [3]	MIC (S. pyogenes)	MIC (A. baumannii)	further results
COc1ccc2c(Cc3ccc(CI)cc3)c3[n+](cc2c1OC)CCc1cc2c(cc1-3)OCO2 [Compound 8, 13-(4-Iodomethylbenzyl)Berberine]	6.25 µM	6.25 µM	6.25 µM	6.25 µM	> 100 µM	> 100 µM	> 100 µM	> 100 µM	25 µM	50 µM	3.12 µM	12.5 µM	12.5 µM	100 µM	100 µM	50 µM	3.12 to 6.25 µM	12.5 µM	12.5 µM	> 100 µM	MIC (C. farmer): > 100 µM; MIC (C. rodentium): > 100 µM; MIC (H. pylori): 6.25 µM; MIC (K. pneumonia): > 100 µM; MIC [4]: > 100 µM; MIC (S. enterica): > 100 µM; MIC (S. flexneri): 50 µM; MIC (V. diabolicus): > 100 µM; MIC (V. alginolyticus): 6.25 µM; IC50 [5]: 23.4 ± 4.5 µM; IC50 [6]: > 50 µM; therapeutic index Caco2 [6]: 11.18; IC50 [7]: > 50 µM
COc1ccc2c(=O)cc(-c3ccc(Cc4c5[n+](cc6c(OC)c(OC)ccc46)CCc4cc6c(cc4-5)OCO6)cc3)oc2c1 [Compound 26, 2-{4-[(Berberin-13-yl)methyl]phenyl}-7-methoxy-4H-chromen-4-one]	12.5 µM	12.5 µM	50 µM	50 µM	> 100 µM	> 100 µM	> 100 µM	> 100 µM	50 µM	100 µM	12.5 µM	50 µM	50 µM	> 100 µM	> 100 µM	> 100 µM	6.25 to 12.5 µM	25 µM	25 µM	> 100 µM	MIC (C. farmer): > 100 µM; MIC (C. rodentium): > 100 µM; MIC (H. pylori): 50 µM; MIC (K. pneumonia): > 100 µM; MIC [4]: > 100 µM; MIC (S. enterica): > 100 µM; MIC (S. flexneri): > 100 µM; MIC (V. diabolicus): > 100 µM; MIC (V. alginolyticus): 50 µM; IC50 [5]: > 50 µM; IC50 [6]: > 50 µM; therapeutic index Caco2 [6]: 20.24; IC50 [7]: > 50 µM
COc1ccc2c(CC(=O)c3ccc(OC(=O)c4ccccc4)cc3OC(=O)c3ccccc3)c3[n+](cc2c1OC)CCc1cc2c(cc1-3)OCO2 [Compound 17, 4-[2-(Berberin-13-yl)acetyl]-3-(benzoyloxy)phenyl Benzoate]	6.25 to 12.5 µM	6.25 µM	12.5 µM	12.5 µM	> 100 µM	> 100 µM	> 100 µM	> 100 µM	100 µM	25 µM	12.5 µM	25 µM	12.5 to 25 µM	100 µM	50 µM	25 µM	3.12 to 6.25 µM	25 µM	25 µM	> 100 µM	MIC (C. farmer): > 100 µM; MIC (C. rodentium): > 100 µM; MIC (H. pylori): 6.25 to 12.5 µM; MIC (K. pneumonia): > 100 µM; MIC [4]: > 100 µM; MIC (S. enterica): > 100 µM; MIC (S. flexneri): > 100 µM; MIC (V. diabolicus): > 100 µM; MIC (V. alginolyticus): 1.5 to 3.12 µM; IC50 [5]: 42.4 ± 9.8 µM; IC50 [6]: > 50 µM; therapeutic index Caco2 [6]: 8.54; IC50 [7]: > 50 µM
